Experimental data published in US6576266B1, “Plant extract based on glycerides, a method for the preparation of this extract and a cosmetic composition containing the same” (Sodic SA, priority 1999, dated 2003).

How the values were obtained:
[1] = test system: reduction of cytochrome c (xanthin oxidase); experiment: Radical scavenging: slowing-down of the reduction of cytochrome c (Fridovitch and McCord); assay type: biochemical; settings: 0.6315 mg/ml, phosphate buffer pH 7.8, 25° C.
Source text: The experimental method is based on the procedure developed in 1973 by Fridovitch and McCord for SOD (J. Biol. Chem. 248, 2648).
The determination of the radical scavenging properties is based on the measurement of the inhibition or of the slowing-down of the reduction of cyto-chrome c by the product investigated, by comparison with the effect exerted by xanthin oxidase. The formation of reduced cytochrome c is monitored by spectrophotometry at 550 nm.
In these tests, a plant extract powder of the invention is used at a concentration of 1.5 mg/ml in a phosphate buffer pH 7.8 at 25° C.
Furthermore, an additional test was carried out with Dgdg alone, in the same conditions as above, but using the Fluka 36975 product having a purity of 95%.

[2] = target: T1, elastase of human leukocytes (EHL) (Homo sapiens, UniProt P08246); experiment: Inhibitory action against elastase (synthetic substrate, spectrophotometry at 405 nm); assay type: biochemical
T1 sequence (P08246 30-267): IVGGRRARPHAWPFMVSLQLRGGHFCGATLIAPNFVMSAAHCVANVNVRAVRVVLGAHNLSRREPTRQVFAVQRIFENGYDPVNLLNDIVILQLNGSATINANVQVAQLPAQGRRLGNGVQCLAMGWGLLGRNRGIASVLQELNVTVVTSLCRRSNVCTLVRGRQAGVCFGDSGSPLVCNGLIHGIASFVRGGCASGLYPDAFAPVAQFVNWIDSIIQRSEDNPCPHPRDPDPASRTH
Description: It was of interest to investigate the inhibitory action against elastase by the powder extract of the invention and to compare it with that of ceramide 3 alone.
The inhibitory action of the powder extract of the invention against EHL was examined in an aqueous solution of a Tris-HCl buffer, using N-methoxysuccinyl-alanyl-alanyl-prolyl-valyl-para-nitroanilide as a synthetic substrate.
The kinetics of the reaction were determined by spectrophotometry at 405 nm, enabling the measurement of the release of para-nitroanilide, which is a coloured product. The percent inhibitory action of the preparation against the elastase was determined by comparison with a reference curve (hydrolysis of the substrate in the absence of an inhibitor).

Inhibitory activity against elastase (in words) [2]: practically no inhibitory activity
Substance: 2,3-di-O-(fatty acid acyl)-1-O-[6′-O-α-D-galactopyranosyl-β-galactopyranosyl]-D-glycerine [Dgdg]
Slowing-down of the reduction of cytochrome c [1]: 36.1%
